Results published in patent US20230104487A1, “11-(4-CHLOROPHENYL)-4-(2,3-DIHYDRO-1H-INDOLE-1-CARBONYL)-3,11-DIMETHYL-5,10,DIOXATRICYCLO[7.4.0.0,2,6,]TRIDECA-1,3,6,8-TETRAEN-13-ONE AND DERIVATIVES AS DESTABILIZER OF CRY1 FOR THE TREATMENT OF CIRCADIAN RHYTHM ASSOCIATED DISEASES AND DISORDERS” (KOC UNIVERSITESI, priority 2019, published 2023).
Entries after “also recorded” stand apart in the source; their conditions may differ.

Tests used:
CRY2 = assay: Protein immunoblot, synchronized U2-OS cells, CRY2; assay type: cell-based, human; settings: 10 μM, 80-92 h
Procedure: FIGS. 3A-3G are an illustration of FORMULA I decreased CRY1 level in synchronized U2-OS cells. Confluent U2-OS cells were synchronized by 2 h treatment with dexamethasone ([…]) and medium replaced with fresh medium containing FORMULA I or solvent (DMSO final 0.5%). Cells were harvested at indicated time points. FIGS. 3A-3B show lysed cells were analyzed via protein immunoblot technique. […] CRY levels in DMSO control divided by that of in FORMULA I treated samples were reported (mean±SEM, n=4). FIGS. 3C-3G show cells were subjected to reverse-transcription-quantitative polymerase chain reaction (RT-qPCR). […] Expression level of genes was normalized according to the expression level of that gene at 72ndh. (Data represent the mean±SEM, n=3 with duplicates ***: p<0.001 **: p<0.005, *: p<0.05 versus DMSO control by two-way ANOVA).
Cells were lysed in RIPA buffer (50 mM Tris, 150 mM NaCl, 1% Triton-X, 0.1% SDS) with fresh Protease inhibitor cocktail (PIC). After centrifugation at 13000 rpm for 15 minutes at 4° C., supernatant was used to determine the protein amount using Pierce Protein Assay (Thermo Scientific) according to the manufacturer's instruction. Mice liver samples were homogenized and lysed with Dounce homogenizer and RIPA buffer. […] ECL buffer system (Advansta WesternBright) was used to visualize HRP chemi-luminescence via BioRad ChemiDoc Touch visualizer. […]

CRY1 = molecular target: T1, CRY1 (Mus musculus, UniProt P97784); assay: CRY1 level in mouse liver (whole cell lysate, cytosolic and nuclear fraction); assay type: in vivo; design: from tissue; host or cells: liver of C57BL/6J mice; settings: 25 and 50 mg/kg i.p., 6 h
T1 sequence (P97784 1-606): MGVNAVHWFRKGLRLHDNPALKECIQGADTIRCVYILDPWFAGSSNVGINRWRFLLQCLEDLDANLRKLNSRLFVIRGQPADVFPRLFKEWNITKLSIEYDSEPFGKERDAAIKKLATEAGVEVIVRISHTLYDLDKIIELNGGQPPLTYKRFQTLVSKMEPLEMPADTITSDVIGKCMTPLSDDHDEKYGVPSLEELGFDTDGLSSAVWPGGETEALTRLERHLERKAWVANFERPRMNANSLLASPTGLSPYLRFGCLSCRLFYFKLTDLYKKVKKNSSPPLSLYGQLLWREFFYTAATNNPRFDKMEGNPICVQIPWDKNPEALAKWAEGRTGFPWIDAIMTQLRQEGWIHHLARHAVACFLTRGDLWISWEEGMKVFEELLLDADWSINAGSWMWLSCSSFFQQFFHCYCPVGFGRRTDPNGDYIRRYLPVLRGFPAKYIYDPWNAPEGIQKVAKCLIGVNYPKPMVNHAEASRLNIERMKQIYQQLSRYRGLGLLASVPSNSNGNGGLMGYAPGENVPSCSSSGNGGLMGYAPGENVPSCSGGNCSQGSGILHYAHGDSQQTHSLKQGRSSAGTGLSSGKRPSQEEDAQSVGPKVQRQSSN
Procedure: FIGS. 5A-5G are an illustration of FORMULA I decreased the nuclear CRY1 in mice liver. FORMULA I (25 mg/kg or 50 mg/kg) or vehicle intraperitoneally administered to C57BL/6J mice. 6 h after the treated mice were sacrificed (n=3). […] FIGS. 5A-5B show an effect of FORMULA I in WCL. FIG. 5C-5D show an effect of FORMULA I in cytosolic fraction. FIGS. 5E-5F show an effect of FORMULA I in nuclear fraction of muce liver. […] (Data represent the mean±SEM, n=3 (with duplicates in RT-PCR) *: p<0.05 versus control by student t-test).
Cells were lysed in RIPA buffer (50 mM Tris, 150 mM NaCl, 1% Triton-X, 0.1% SDS) with fresh Protease inhibitor cocktail (PIC). After centrifugation at 13000 rpm for 15 minutes at 4° C., supernatant was used to determine the protein amount using Pierce Protein Assay (Thermo Scientific) according to the manufacturer's instruction. Mice liver samples were homogenized and lysed with Dounce homogenizer and RIPA buffer. After homogenization samples were incubated 10 minutes on ice. After centrifugation 13000 rpm 15 minutes at 4° C. supernatant was used for the whole cell lysate. Subcellular fractionation of liver samples: Liver samples were homogenized with cytosolic lysis buffer (10 mM HEPES pH 7.9, 10 mM KCl, 0.1 mM EDTA, 0.05% NP40, proteasome inhibitor) by pipetting 40 times with a cut tip. Then samples were incubated 10 minutes on ice and centrifuged for 3 minutes at 3000 rpm at 4° C. Supernatant was saved in a new tube, and pellet was processed for the nuclear fraction. Supernatant was centrifuged at 13000 rpm for 3 minutes at 4° C. where new supernatant saved as the cytosolic fraction. […] ECL buffer system (Advansta WesternBright) was used to visualize HRP chemi-luminescence via BioRad ChemiDoc Touch visualizer. […]
Since CRYs are stabilized and degraded differently in cytosolic and nuclear compartments, we further analyzed the level of CRY1 in the cytosolic and nuclear fraction of the mouse liver. […]

Cc1c(C(=O)N2CCc3ccccc32)oc2ccc3c(c12)C(=O)CC(C)(c1ccc(Cl)cc1)O3 (stereo not shown) [FORMULA I, 11-(4-chlorophenyl)-4-(2,3-dihydro-1H-indole-1-carbonyl)-3,11-dimethyl-5,10,dioxatricyclo[7.4.0.0,2,6,]trideca-1,3,6,8-tetraen-13-one]
CRY2 protein level (CRY2): increased CRY2 levels; also recorded: increased the level of CRY2 | CRY1 level in cytosolic fraction of liver (CRY1): not statistically significant compared to controls; also recorded: slightly decreased the CRY1 levels | CRY1 level in nuclear fraction of liver (CRY1): significantly low compared to controls in dose dependent manner; also recorded: decreased the nuclear CRY1 level significantly; also recorded: selectively decrease CRY1 level in the nucleus | CRY1 level in whole cell lysate of liver (CRY1): slight decrease in CRY1 levels; also recorded: slightly decreased the CRY1 levels
